In patent US20100029724A1, “SCREENING METHOD” (Takeda Pharmaceutical Company Limited, priority 2006, published 2010):

Tests used:
[1] = biological target: T1, human recombinant ferrochelatase (Homo sapiens, UniProt P22830); assay: Measurement of ferrochelatase activity (zinc-protoporphyrin IX production, fluorescence); format: biochemical; details: compound 3 μM, mean±SD, n=8, control group 0.377 ± 0.010
T1 construct: attached to the N terminal of the human FeCh Mature region (55th-423rd amino acid residues); Nus-Tag (N, cleaved yes); His-Tag (N, cleaved yes); made in house; host or cells: Escherichia coli BL21 (DE3)
T1 sequence (P22830 55-423): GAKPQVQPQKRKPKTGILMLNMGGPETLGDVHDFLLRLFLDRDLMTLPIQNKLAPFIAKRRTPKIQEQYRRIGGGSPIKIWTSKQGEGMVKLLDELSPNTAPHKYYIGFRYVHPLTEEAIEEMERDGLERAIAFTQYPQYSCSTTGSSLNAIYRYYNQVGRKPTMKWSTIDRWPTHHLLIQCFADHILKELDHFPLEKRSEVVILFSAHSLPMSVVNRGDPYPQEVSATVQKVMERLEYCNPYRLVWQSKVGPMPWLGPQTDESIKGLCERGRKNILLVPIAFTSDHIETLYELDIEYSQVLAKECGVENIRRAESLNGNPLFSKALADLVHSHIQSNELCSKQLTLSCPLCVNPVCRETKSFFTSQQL
Protocol: Using human FeCh gene (Invitrogen) as a template, PCR was performed using the following primer 1 (SEQ ID NO: 3) and primer 2 (SEQ ID NO: 4). Pyrobest DNA polymerase (TAKARA SHUZO CO., LTD.) was used for the PCR, and extension reactions were performed under the conditions of (1) 95° C. 1 min, then (2) 30 cycles of 96° C. 15 sec, 60° C. 30 sec, 72° C. 90 sec, then (3) 72° C. for 7 min. After the reaction, the amplification product was inserted into pCR-Blunt II-TOPO (Invitrogen) and cloned. The obtained plasmid was digested with Bgl II and Xho I to recover inserted fragments. The fragments were inserted into the Bam HI/Xho I site of pET43.1a (Novagen) to give an expression vector pET43.1a-hFeCh encoding a protein with Nus-Tag and His-Tag attached to the N terminal of the human FeCh Mature region (55th-423rd amino acid residues).
The expression vector pET43.1a-hFeCh constructed in the above-mentioned A1 was introduced into Escherichia coli BL21 (DE3) Competent Cell (Stratagene) to give an expression strain. […]
The cells obtained in the above-mentioned A2 were suspended in Blue column Buffer (10 mM Tris-HCl (pH 8.1), 0.5 M NaCl, 10% Glycerol, 1% Triton X-100, 5 mM 2-Mercaptoethanol (2-ME), 250 ml) containing Protease Cocktail (Complete, EDTA-free; Roche). […] As a result of protein quantification (CBB method; Pierce), the total protein amount of about 8 mg of human FeCh was obtained. […]

[2] = system: cytochrome c oxidase activity of high glucose-treated HepG2 cell; assay: Cytochrome c oxidase activity in high glucose treated HepG2 cell; format: cell-based, human; details: compound 3 μM, 3 days, high glucose (4.5 g/L) HepG2, mean±SD, n=4
Protocol: (1) Human liver cancer cell-derived cell line HepG2 was passaged in low glucose (1 g/L) Eagle Modified Dulbecco's Medium supplemented with 10% fetal bovine serum. The cells adjusted to 3×10^5/mL using the same medium were plated on a 96 well plate and precultured overnight. The aforementioned medium was changed to high glucose (4.5 g/L) Eagle Modified Dulbecco's Medium supplemented with 5 μg/mL transferrin, compound (a) or compound (l) was added and the cell culture was continued for 3 days. The same experiment was performed without using compound (a) and compound (l) as the control group. […] (3) The DNA content was measured using PicoGreen dsDNA Quantitation Kit (Molecular Probes P-7589), and used as an index of cell number. The cytochrome c oxidase activity was determined using the Cytochrome c oxidase Assay kit (Sigma CYTOC-OX1) modified to fit a 96 well plate protocol. […] The time-course changes in the absorbance were measured by determining the absorbance at 550 nm at a delta soft kinetic mode once in 15 sec for 6 min from immediately after the start of the reaction. The cytochrome c oxidase activity was calculated as an absorbance change rate in 5 min from 1 to 6 min. […]

[3] = system: ZDF rats; assay: Evaluation of anti-diabetic action in ZDF rat (blood glucose level); format: in vivo; details: male ZDF rat at 16 weeks of age; mixed diet 0.03% compound from 8 weeks of age (dose 20.9 mg/kg body weight); mean±SD; control group 652.8±23.10
Protocol: Male ZDF rats (5-week-old, Charles River Japan) were reared while allowing free-feeding of both diet and water. As the feed, a standard laboratory diet (MF; Oriental Yeast Co, Tokyo, Japan) and a mixed diet (the aforementioned standard laboratory diet containing 0.03% of compound (a)) were used. After acclimation rearing for 1 week, the body weight and glycated hemoglobin were measured, and the ZDF rats were divided into 2 groups (8 rats/group) such that the measurement values became uniform at 8 weeks of age. For the control group, the aforementioned standard laboratory diet was given, and for the compound (a) administration group, the aforementioned mixed diet was given from 8 weeks of age to 19 weeks of age.
At 16 weeks of age, the food intake in 24 hr was measured. The rats were reared at 4 rats/cage, the total amount of decrease in the diet in a can set to each cage was divided by 4 and taken as the daily food intake per rat. In addition, the dose of compound (a) was calculated from the food intake and the content of compound (a) in the mixed diet.
At 16 weeks of age, moreover, the blood was drawn from the rat tail vein using heparin as an anticoagulant. The blood sample was preserved on ice, and the plasma after centrifugation was preserved at −20° C. until measurement. The blood glucose level was measured by a biochemical automatic analyzer (Beckman Coulter, Shyncron CX5Δ).

[4] = system: Crj: CD(SD)IGS rats; assay: Evaluation of hemoglobin increasing action; format: in vivo, rat; details: female Crj: CD(SD)IGS rats, 600 mg/kg/day oral, 4 weeks, mean±SD
Protocol: (1) After acclimation rearing for 1 week, female Crj: CD(SD)IGS rats (5-week-old) were divided into 2 groups (10 rats/group). (2) For one group, a suspension of compound (a), obtained by suspending compound (a) in 0.5% aqueous methylcellulose solution, was orally administered at 10 ml/kg body weight/day (dose of compound (a): 600 mg/kg body weight/day) once a day. For the other group, 0.5% aqueous methylcellulose solution was orally administered at 10 ml/kg body weight/day in the same manner, and used as the control group. (3) After 4-week administration under free-feeding conditions, the rats were fasted for 20 hr, and the whole blood was collected from the abdominal artery into a blood collection vessel (SP-U0501EM, Sekisui Chemical), and the red blood cell count, hematocrit, hemoglobin concentration, and MCH (average red blood cell hemoglobin) of the rat blood were measured. The numerical values in the Table show mean±standard deviation.

[5] = system: Wistar Fatty rats; assay: Evaluation of anti-diabetic action in Wistar Fatty rats (glycosylated hemoglobin); format: in vivo, rat; details: male Wistar Fatty rats, mean±SD, n=5-6
Protocol: Lean rats in the same lot as the male Wistar Fatty rats (26 to 27-week-old; TAKEDA RABICS, lot0402) were used. Blood samples were collected from Wistar Fatty rats in the morning under non-fasting, and glycosylated hemoglobin % value (GHB %) and plasma component were measured. GHB % was measured by Tosoh automatic glycohemoglobin analyzer HLC-723 GHbV Alc2.2. The Plasma component was measured by Beckman Synchron system CX5 delta. The rats showing a GHB % value of not less than 7.5% and a high PG value were divided into 2 groups. For one group, a suspension of compound (1), obtained by suspending compound (l) in 0.5% aqueous methylcellulose solution, (dose of compound (l): 10 mg/kg body weight) was orally administered repeatedly once a day for 20 days. For the other group, 0.5% aqueous methylcellulose solution was orally administered in the same manner, and used as the control group. On the day of completion of the administration, the blood samples were collected again, and GHB % was measured. The numerical values in the Table show mean±standard deviation of n=5-6 (n is the number of rats).

ferrochelatase activity [1] [Em 590 nm] | Compound | Cytochrome c oxidase activity ([2]; Table 5, control group 0.649 ± 0.044) [units/μg DNA] | blood glucose level [3] [mg/dL] | hemoglobin ([4]; control group 15.3 ± 0.4) [g/dL] | MCH (average red blood cell hemoglobin) ([4]; control group 19.6 ± 0.4) [pg] | hematocrit ([4]; control group 42.5 ± 1.1) [%] | red blood cell count ([4]; control group 777 ± 21) | Cytochrome c oxidase activity ([2]; Table 6, control group 0.743 ± 0.043) | Glycosylated hemoglobin value, after drug administration ([5]; 10 mg/kg oral once a day for 20 days, control group 7.7 ± 0.2) [%] | Glycosylated hemoglobin value, amount of change ([5]; 10 mg/kg oral once a day for 20 days, control group −0.5 ± 0.2) [%] | Glycosylated hemoglobin value, before drug administration ([5]; baseline before 10 mg/kg oral once a day for 20 days) [%]
0.609 ± 0.008 | CCOP(=O)(OCC)OCc1ccc(NC(=O)/C=C/c2cnn(C)c2-c2ccc(F)cc2)cc1 [compound (a), diethyl [4-({(2E)-3-[5-(4-fluorophenyl)-1-methyl-1H-pyrazol-4-yl]prop-2-enoyl}amino)benzyl]phosphate] | 0.757 ± 0.029 | 271.7 ± 36.5 | 16.1 ± 0.7 | 20.7 ± 0.5 | 44.7 ± 1.9 | 779 ± 32 ×10^4/μl |  |  |  | 
0.655 ± 0.009 | Cn1ncc(/C=C/C(=O)Nc2ccc(CCc3nnco3)cc2)c1-c1ccc(F)cc1 [compound (l), (2E)-3-[5-(4-fluorophenyl)-1-methyl-1H-pyrazol-4-yl]-N-{4-[2-(1,3,4-oxadiazol-2-yl)ethyl]phenyl}acrylamide] |  |  |  |  |  |  | 0.990 ± 0.088 units/(μg DNA | 6.9 ± 0.4 | −1.3 ± 0.3 | 8.2 ± 0.5
